ChEMBL document CHEMBL5149981, “Carboxylesterase Notum Is a Druggable Target to Modulate Wnt Signaling” (J Med Chem, 2021)
pEC50, pIC50: −log10 of the molar value.

Legend:
[1] = target: T1, Palmitoleoyl-protein carboxylesterase NOTUM (Homo sapiens, UniProt Q6P988)
T1 sequence (Q6P988 whole entry): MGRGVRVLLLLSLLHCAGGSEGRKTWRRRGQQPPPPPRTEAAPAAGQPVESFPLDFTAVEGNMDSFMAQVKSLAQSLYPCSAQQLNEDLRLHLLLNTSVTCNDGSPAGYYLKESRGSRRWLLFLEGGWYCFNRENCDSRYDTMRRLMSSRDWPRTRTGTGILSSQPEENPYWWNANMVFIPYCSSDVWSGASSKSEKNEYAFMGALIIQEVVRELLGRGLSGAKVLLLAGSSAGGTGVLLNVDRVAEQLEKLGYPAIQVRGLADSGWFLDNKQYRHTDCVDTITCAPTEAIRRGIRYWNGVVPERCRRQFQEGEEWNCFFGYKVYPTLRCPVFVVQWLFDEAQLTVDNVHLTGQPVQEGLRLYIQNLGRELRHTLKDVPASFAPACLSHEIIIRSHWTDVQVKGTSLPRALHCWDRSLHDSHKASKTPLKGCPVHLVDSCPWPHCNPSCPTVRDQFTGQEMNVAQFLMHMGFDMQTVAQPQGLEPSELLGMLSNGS

[2] = target: T1, Palmitoleoyl-protein carboxylesterase NOTUM; remark: listed apart in the source
[3] = target: T1, Palmitoleoyl-protein carboxylesterase NOTUM; remark: listed apart in the source

Row | pIC50 [1] | pEC50 [3] | SMILES | pIC50 [2]
1 | 4.03 | – | CC(=O)NCCc1c[nH]c2ccc(O)cc12 [ACETYLSEROTONIN] | –
2 | – | – | Cc1ccccc1OCC(=O)Nc1cccnc1 | 4.48
3 | 8.70 | 6.80 | Cc1sc2ncnc(SCC(=O)O)c2c1Cl | –
